The values that follow come from ChEMBL document CHEMBL4145445, “Design, synthesis and biological assessment of new thiazolylhydrazine derivatives as selective and reversible hMAO-A inhibitors” (Eur J Med Chem, 2018).

SMILES strings stand for the structures.

Data set [1] concerns the target T1, Amine oxidase [flavin-containing] B (Homo sapiens, UniProt P27338).
T1 sequence (P27338 whole entry): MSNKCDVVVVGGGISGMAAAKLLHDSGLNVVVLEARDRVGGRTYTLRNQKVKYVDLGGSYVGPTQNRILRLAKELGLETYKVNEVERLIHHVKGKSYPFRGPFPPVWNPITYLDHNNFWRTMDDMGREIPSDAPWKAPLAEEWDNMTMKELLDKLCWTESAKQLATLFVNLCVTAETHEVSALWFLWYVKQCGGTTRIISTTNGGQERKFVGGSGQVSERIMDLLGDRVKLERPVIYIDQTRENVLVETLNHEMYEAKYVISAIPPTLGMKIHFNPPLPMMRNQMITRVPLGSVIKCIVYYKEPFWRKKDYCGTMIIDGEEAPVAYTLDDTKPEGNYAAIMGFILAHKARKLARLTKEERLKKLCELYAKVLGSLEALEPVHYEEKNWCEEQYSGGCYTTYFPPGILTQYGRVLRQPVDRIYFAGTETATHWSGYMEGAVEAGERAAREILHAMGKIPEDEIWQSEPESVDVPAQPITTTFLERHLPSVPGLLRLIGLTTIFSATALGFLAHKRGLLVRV
As to the kind of experiment: Inhibition of human MAO-B at 10^-4 to 10^-3 M using tyramine hydrochloride as substrate after 30 mins by Amplex Red reagent based horseradish peroxidase enzyme-coupled fluorescence assay relative to control. To be noted: 0.5 h.

Data set [2] concerns the target T2, Amine oxidase [flavin-containing] A (Homo sapiens, UniProt P21397).
T2 sequence (P21397 whole entry): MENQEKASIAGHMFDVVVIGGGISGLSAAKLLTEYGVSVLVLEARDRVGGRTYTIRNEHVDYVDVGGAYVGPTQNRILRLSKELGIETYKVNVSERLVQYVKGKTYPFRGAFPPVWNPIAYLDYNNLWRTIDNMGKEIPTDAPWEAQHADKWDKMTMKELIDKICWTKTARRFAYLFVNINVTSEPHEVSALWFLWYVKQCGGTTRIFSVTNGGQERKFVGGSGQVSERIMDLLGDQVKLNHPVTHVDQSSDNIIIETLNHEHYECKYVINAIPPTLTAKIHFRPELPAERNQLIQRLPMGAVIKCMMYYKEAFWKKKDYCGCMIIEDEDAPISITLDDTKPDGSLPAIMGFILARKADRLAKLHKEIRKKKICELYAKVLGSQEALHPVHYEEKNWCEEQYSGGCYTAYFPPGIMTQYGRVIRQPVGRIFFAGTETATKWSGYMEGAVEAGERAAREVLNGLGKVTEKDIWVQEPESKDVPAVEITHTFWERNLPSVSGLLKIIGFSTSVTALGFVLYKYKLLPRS
As to the kind of experiment: Inhibition of human MAO-A at 10^-4 to 10^-3 M using tyramine hydrochloride as substrate after 30 mins by Amplex Red reagent based horseradish peroxidase enzyme-coupled fluorescence assay relative to control. The following applies: 0.5 h.

Data set [3] concerns the target T2, Amine oxidase [flavin-containing] A. The data set is described as follows: Inhibition of human MAO-A using tyramine hydrochloride as substrate after 30 mins by Amplex Red reagent based horseradish peroxidase enzyme-coupled fluorescence assay.
For data set [4], the target named is T1, Amine oxidase [flavin-containing] B. As to the kind of experiment: Inhibition of human MAO-B using tyramine hydrochloride as substrate after 30 mins by Amplex Red reagent based horseradish peroxidase enzyme-coupled fluorescence assay.
The species named for the next data set is Homo sapiens. The data set is described as follows: Selectivity index, ratio of IC50 for human MAO-B to IC50 for human MAO-A.

For the molecule `Clc1ccc(-c2csc(N/N=C/c3ccc(N4CCCC4)cc3)n2)cc1`, the “inhibition (INH)” value in data set [1] and in data set [2] was more than 50% in each case. Besides, the IC50 in data set [3] came out at 45.1 µM; in data set [4], 761 µM. For the same molecule, the Ratio IC50 in the data set listed under Homo sapiens is 16.9.

For `Cc1ccc(-c2csc(N/N=C/c3ccc(N4CCCC4)cc3)n2)cc1`, the “inhibition (INH)” value in data set [2] was more than 50%. The 50% inhibitory concentration (IC50) is 20 µM in data set [3] and more than 100 µM in data set [4]. Moreover, the Ratio IC50 in the data set filed under Homo sapiens was more than 4.99.

Regarding `C(=N\Nc1nc(-c2ccccc2)cs1)/c1ccc(N2CCCC2)cc1`, the “inhibition (INH)” value in data set [2] was more than 50%. Further, the IC50 in data set [3] was 25.6 µM; in data set [4] it was more than 1000 µM. In addition, the Ratio IC50 in the data set listed under Homo sapiens is more than 39.1.

On to `N#Cc1ccc(-c2csc(N/N=C/c3ccc(N4CCCC4)cc3)n2)cc1`, for which the “inhibition (INH)” value in data set [1] and in data set [2] was more than 50% throughout. The results for the IC50 in data set [3] and in data set [4] were 66.3 µM and 53.1 µM, respectively. In addition, the Ratio IC50 in the data set filed under Homo sapiens amounted to 0.8.

`Clc1ccc(-c2csc(N/N=C/c3ccc(N4CCOCC4)cc3)n2)cc1`: the “inhibition (INH)” value in data set [1] and in data set [2] was more than 50% in each case. Besides, the IC50 in data set [3] is 10.6 µM; in data set [4] it was 558 µM. For the same molecule, the Ratio IC50 in the data set listed under Homo sapiens was found to be 52.8.

In the case of `C(=N\Nc1nc(-c2ccccc2)cs1)/c1ccc(N2CCOCC2)cc1`, in data set [2], the “inhibition (INH)” value is recorded as more than 50%. The values for the IC50 in data set [3] and in data set [4] were 11.4 µM and more than 1000 µM, respectively. In addition, in the data set filed under Homo sapiens, the Ratio IC50 was more than 87.8.

Regarding `Brc1ccc(-c2csc(N/N=C/c3ccc(N4CCOCC4)cc3)n2)cc1`, in data set [2], the “inhibition (INH)” value is more than 50%. Besides, the half-inhibitory concentration (IC50) is 14.6 µM in data set [3] and more than 100 µM in data set [4]. Moreover, in the data set listed under Homo sapiens, the Ratio IC50 was more than 6.84.

For the molecule `Cc1ccc(-c2csc(N/N=C/c3ccc(N4CCOCC4)cc3)n2)cc1`, the “inhibition (INH)” value in data set [2] was more than 50%. For the same molecule, the IC50 was 10.4 µM in data set [3] and more than 1000 µM in data set [4]. Moreover, in the data set listed under Homo sapiens, the Ratio IC50 is more than 96.2.
